Experiments:
[1] = biological target: T1, mPIEZO1 (Mus musculus, UniProt E2JF22); test: Automated patch clamp (SyncroPatch 384) on mPIEZO1-TREx cells; assay type: cell-based; details: for Effect on M-Stim-evoked currents: mPIEZO1-TREx cells, −80 mV; for Cells responding to activation: mPIEZO1-TREx, 10 μM KC157, 10 μM Yoda1, 5 μM KC159
T1 construct: expressed in transfected cells
Description: (§1) For automated patch clamp, cells were cultured and harvested according to Nanion's standard cell culture protocol (Obergrussberger et al., [2014]). hPIEZO1‐TREx cells were induced to express PIEZO1 by incubation with 0.5 μg·ml^−1 tetracycline 24 h prior to experiments. Whole‐cell patch‐clamp recordings were conducted on HEK‐TREx, hPIEZO1‐TREx and mPIEZO1‐TREx cells according to Nanion's standard procedure for the SyncroPatch 384, using medium resistance (4–5 MΩ) chips (Obergrussberger et al., [2018]). Cells were held at −80 mV for the duration of the experiment. The channel was activated by mechanical forces in the absence and presence of the agonists. To stimulate PIEZO1 channels mechanically (mechanical stimulation [M‐Stim]), we dispensed 20 μl of solution (either reference or agonist) locally to the cell at a pipetting speed of 110 μl·s^−1 in synchrony with a triggered recording of the current response at the holding potential. The internal solution contained 110 mM KF, 10 mM KCl, 10 mM NaCl, 10 mM HEPES and 10 mM EGTA, pH adjusted to 7.2 with KOH, and the external solution contained 140 mM NaCl, 4 mM KCl, 2 mM CaCl2, 1 mM MgCl2, 5 mM glucose, 10 mM HEPES, pH adjusted to 7.4 with NaOH, and 0.1% DMSO to match the DMSO concentration of the compound solutions. For PIEZO1 stimulation, KC159, KC157 or Yoda1 was applied directly onto the cells via a pipette application. One chip of the SyncroPatch 384 is equipped with 384 wells served by 384 robotic pipettes and connected to 384 individual amplifiers, allowing us to test 384 distinct cells in one experiment. We tested the effect of each specified analogue on mPIEZO1‐, hPIEZO1‐ and untransfected HEK‐TREx cells in parallel and in comparison to mechanical and Yoda1 stimulation. To estimate the EC50 values, four concentrations of each agonist were tested per cell line in one chip, with each cell receiving single concentrations, and the concentration–response curve was calculated across the whole chip (384 cells). Only cells with seal resistance >0.3 GΩ, series resistance <20 MΩ and cell capacitance >5 and <40 pF were used for analysis.
(§2) DataControl 384 (Nanion Technologies GmbH), Prism 9 (GraphPad) and OriginPro 2020 (OriginLab) were used for all analysis of automated patch‐clamp data. For manual and automated patch‐clamp data, n represents the number of cells recorded from successfully in each experimental condition, sampled from two to six batches of cells or 384‐well chips in automated patch clamp. For manual patch‐clamp experiments, each cell/patch recording (n) is considered as an independent experiment because each was made independently at a separate time, using a separate coverslip of cells and using a separate patch pipette. In some instances, more than one such independent recording was made from the same batch of cultured or transfected cells. These n values are considered as independent. Each cell was studied alone and from a separate coverslip in the case for manual patch clamp. To estimate the EC50 values of the agonists in automated patch‐clamp studies, the peak current in the presence of the agonist was normalised to the peak current in the presence of the reference solution. Single‐point concentration–response curves were fitted with a standard Hill equation to estimate EC50 values. P < 0.05 was deemed significant. For automated patch‐clamp experiments, we included some data for n < 5 (Figure 7a,b). […] Such replicates are a feature of, and a rationale for, this automated technology, which is an innovation for the type of research shown here but already commonly used in the pharmaceutical industry for other ion channel studies to increase throughput and avoid waste from large volumes of independent cell cultures and minimise cost from expensive specially engineered plates. As a general strategy, our study used multiple independent technical approaches to address the same or similar questions. […]

[2] = biological target: T2, hPIEZO1 (Homo sapiens, UniProt Q92508); test: Automated patch clamp (SyncroPatch 384) on hPIEZO1-TREx cells; assay type: cell-based; details: for Effect on M-Stim-evoked currents: hPIEZO1-TREx cells, −80 mV; for Cells responding to activation: hPIEZO1-TREx, 10 μM KC157, 10 μM Yoda1, 5 μM KC159
T2 construct: expressed in transfected cells
Description: as §1, §2

[3] = Plasma protein binding by rapid equilibrium dialysis; assay type: in vitro ADME; details: RED
Description: Mouse plasma protein binding was measured by rapid equilibrium dialysis (RED) performed by Malvern Panalytical (UK). Briefly, mouse plasma was warmed to 37°C for 10 min, and test compound stock solution was added to achieve a 5 μM solution; 500 μl of dialysis buffer was added to one side of the chamber of the device insert (Piercenet, Dialysis membrane MWCO 8000) housed within a heated Teflon block, and the incubation was initiated by the addition of 300 μl of the test compound protein solution to the opposite chamber. Equilibrium was reached by shaking the device on an orbital mixer at 37°C for 4 h; 50 μl aliquots from the buffer and the plasma chambers were transferred into separate wells of a deep‐well plate; 50 μl of plasma was added to the buffer samples, and 50 μl of buffer was added to the plasma samples; 300 μl of ice‐cold acetonitrile containing internal standard was added to precipitate the protein. Samples were then centrifuged (2700 × g at 4°C for 20 min) to pellet the protein, and the supernatant was analysed by LC–MS/MS to quantify the % input compound unbound to plasma protein with reference to a standard curve.

[4] = Kinetic and thermodynamic solubility assays (Malvern Panalytical); assay type: physicochemical; details: phosphate buffer, physiological pH 7.4; compared with Yoda1
Description: Kinetic and thermodynamic solubility assays were also performed by Malvern Panalytical (UK). Briefly, 1000 μl of 0.1 M phosphate buffer (pH 7.4) received either 25 μl of a 10 mM DMSO stock of test compound (for kinetic solubility assays) or 1 mg of test compound (for thermodynamic solubility assays). The mixtures were shaken on an orbital mixer to reach equilibrium for 1 or 24 h, respectively. The equilibrated solution was centrifuged, and the supernatant was removed to a fresh vial and then re‐centrifuged. High‐ and low‐dilution samples were prepared from the secondary supernatant and quantified by LC–MS/MS against a standard curve.

T2 sequence (Q92508 whole entry): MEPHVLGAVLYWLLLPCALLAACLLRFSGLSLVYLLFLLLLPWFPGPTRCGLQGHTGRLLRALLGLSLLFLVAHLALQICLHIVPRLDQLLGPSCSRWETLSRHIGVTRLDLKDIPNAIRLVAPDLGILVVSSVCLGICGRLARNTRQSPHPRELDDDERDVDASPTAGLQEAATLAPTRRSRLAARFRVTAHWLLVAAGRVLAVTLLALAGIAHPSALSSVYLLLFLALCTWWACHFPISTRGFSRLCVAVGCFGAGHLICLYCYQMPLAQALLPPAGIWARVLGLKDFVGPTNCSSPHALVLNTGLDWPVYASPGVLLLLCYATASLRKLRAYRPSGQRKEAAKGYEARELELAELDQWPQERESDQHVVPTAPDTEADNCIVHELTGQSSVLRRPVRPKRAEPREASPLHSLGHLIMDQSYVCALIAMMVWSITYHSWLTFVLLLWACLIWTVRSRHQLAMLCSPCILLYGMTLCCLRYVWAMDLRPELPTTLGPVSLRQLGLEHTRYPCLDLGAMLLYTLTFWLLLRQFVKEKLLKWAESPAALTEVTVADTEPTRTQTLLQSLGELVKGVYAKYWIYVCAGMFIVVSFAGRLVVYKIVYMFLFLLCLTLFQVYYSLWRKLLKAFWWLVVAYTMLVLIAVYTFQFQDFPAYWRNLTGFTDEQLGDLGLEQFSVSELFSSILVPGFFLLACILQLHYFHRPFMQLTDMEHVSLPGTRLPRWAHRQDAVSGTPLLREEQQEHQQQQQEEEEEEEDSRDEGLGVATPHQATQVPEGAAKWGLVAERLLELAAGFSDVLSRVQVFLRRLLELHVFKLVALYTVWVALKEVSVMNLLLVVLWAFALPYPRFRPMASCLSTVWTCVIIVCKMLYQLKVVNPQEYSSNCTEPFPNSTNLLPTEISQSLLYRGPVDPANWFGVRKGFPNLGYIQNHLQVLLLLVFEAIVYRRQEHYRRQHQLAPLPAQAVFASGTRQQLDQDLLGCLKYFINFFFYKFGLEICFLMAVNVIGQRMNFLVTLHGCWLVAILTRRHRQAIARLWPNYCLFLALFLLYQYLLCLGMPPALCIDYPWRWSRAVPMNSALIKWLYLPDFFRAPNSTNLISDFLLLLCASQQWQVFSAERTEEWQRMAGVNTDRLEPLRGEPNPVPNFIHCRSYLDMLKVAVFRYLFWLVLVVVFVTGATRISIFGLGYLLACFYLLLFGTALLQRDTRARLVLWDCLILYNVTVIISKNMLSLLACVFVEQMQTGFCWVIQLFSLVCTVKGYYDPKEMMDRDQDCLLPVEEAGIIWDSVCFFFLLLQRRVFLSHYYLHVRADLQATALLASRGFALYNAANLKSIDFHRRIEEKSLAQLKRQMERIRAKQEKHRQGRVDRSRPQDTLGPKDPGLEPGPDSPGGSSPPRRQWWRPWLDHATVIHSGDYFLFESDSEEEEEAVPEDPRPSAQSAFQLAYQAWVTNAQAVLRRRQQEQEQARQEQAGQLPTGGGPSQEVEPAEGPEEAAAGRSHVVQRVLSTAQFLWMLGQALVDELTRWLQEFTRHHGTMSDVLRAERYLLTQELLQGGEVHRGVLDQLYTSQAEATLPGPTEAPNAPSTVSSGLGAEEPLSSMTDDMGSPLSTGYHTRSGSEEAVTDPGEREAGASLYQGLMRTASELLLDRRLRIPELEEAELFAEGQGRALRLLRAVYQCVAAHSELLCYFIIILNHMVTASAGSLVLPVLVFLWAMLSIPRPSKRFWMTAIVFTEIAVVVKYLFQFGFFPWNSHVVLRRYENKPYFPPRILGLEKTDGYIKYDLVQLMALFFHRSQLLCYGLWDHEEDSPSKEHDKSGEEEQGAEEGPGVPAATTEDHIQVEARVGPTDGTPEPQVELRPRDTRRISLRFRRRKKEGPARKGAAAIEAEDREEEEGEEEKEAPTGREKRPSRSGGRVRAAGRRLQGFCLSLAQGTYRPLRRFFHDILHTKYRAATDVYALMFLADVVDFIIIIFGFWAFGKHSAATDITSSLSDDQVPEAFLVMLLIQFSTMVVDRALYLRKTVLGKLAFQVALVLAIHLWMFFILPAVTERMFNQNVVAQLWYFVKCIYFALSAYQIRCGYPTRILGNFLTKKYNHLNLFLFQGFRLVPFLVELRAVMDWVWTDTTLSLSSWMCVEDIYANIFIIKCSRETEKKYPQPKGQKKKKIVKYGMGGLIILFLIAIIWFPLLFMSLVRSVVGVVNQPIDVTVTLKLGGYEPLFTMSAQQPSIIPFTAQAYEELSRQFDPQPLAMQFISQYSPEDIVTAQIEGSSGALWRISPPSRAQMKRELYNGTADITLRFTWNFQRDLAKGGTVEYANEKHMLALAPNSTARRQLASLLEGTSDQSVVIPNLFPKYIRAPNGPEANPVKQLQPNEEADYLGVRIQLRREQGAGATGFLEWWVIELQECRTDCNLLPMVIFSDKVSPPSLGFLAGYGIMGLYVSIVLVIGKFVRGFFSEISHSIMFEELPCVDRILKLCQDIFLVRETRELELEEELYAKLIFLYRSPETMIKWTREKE
T1 sequence (E2JF22 whole entry): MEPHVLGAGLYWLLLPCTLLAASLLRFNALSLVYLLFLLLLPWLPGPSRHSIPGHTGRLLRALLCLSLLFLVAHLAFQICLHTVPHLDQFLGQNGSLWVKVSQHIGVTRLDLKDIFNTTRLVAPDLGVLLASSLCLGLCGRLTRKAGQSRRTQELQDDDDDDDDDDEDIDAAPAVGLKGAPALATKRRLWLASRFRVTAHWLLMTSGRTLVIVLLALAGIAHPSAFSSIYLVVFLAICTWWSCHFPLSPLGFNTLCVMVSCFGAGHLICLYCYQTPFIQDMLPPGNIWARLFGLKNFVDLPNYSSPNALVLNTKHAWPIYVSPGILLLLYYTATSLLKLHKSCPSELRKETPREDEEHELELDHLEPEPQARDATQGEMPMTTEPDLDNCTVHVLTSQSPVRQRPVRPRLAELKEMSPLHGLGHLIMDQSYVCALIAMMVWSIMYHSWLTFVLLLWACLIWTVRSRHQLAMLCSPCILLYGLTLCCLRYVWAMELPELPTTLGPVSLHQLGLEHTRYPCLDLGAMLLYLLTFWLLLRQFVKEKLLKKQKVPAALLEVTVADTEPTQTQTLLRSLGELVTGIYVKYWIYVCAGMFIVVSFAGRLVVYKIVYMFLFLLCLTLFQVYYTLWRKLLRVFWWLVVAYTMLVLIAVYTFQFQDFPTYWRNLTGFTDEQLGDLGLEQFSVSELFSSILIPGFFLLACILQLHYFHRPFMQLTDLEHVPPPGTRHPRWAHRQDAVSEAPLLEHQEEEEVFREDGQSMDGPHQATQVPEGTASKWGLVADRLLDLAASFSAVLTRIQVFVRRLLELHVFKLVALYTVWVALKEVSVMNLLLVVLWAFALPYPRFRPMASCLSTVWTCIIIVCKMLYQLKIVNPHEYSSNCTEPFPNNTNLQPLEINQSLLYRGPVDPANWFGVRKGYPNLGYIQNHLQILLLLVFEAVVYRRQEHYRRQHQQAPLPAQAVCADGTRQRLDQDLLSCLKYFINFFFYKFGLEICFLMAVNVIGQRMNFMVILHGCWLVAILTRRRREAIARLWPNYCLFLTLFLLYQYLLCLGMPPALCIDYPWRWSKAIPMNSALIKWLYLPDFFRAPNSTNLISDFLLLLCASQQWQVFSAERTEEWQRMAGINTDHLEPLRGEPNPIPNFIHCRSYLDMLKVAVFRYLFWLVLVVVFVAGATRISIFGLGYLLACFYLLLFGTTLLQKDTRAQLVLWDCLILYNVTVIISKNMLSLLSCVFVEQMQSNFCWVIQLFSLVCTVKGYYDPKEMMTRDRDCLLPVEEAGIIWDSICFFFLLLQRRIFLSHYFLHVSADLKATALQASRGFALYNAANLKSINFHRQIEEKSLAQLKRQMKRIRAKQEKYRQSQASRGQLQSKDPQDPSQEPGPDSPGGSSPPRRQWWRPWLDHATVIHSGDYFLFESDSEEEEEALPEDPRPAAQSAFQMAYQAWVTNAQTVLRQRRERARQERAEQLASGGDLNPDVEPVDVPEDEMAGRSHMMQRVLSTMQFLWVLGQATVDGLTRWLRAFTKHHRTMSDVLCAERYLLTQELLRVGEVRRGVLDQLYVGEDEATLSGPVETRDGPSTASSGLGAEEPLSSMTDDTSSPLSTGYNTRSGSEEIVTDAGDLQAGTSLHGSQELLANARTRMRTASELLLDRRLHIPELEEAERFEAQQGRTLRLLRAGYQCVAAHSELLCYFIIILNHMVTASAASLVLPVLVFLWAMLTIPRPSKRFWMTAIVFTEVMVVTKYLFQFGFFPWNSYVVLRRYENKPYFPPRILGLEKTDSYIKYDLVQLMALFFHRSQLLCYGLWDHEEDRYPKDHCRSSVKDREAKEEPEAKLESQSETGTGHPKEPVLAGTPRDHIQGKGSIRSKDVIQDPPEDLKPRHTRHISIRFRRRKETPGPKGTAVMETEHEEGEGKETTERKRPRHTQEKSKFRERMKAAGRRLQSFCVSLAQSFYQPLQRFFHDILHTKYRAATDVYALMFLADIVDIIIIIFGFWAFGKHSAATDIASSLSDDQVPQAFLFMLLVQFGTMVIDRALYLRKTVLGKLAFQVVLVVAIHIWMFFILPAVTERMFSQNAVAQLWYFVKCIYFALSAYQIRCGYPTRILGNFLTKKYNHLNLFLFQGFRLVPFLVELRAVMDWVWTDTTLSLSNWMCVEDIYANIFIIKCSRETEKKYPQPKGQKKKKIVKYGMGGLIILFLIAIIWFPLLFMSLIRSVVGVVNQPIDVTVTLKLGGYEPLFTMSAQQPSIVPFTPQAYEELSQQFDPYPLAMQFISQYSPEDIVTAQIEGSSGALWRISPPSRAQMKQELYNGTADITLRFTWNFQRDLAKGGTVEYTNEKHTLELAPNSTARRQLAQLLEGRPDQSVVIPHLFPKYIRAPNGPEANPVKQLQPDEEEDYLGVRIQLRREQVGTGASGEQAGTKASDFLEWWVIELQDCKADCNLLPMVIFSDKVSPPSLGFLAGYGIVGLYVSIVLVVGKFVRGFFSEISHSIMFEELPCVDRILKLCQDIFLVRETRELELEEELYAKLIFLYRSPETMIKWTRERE

SMILES	Effect on M-Stim-evoked currents ([1]; 10 μM)	Cells responding to activation [1]	Effect on M-Stim-evoked currents ([2]; 10 μM)	Cells responding to activation [2]	Fraction bound to plasma proteins ([3]; mouse plasma, 5 μM)	Kinetic solubility [4]	Thermodynamic solubility [4]	fraction unbound at 4 h, 5 μM ([3]; mouse, plasma, read-out: Fraction bound to plasma proteins (converted))	Sustained component of current as % of the peak current amplitude ([1]; 10 μM, mPIEZO1 cells, mean ± SD)	EC50 ([1]; mouse PIEZO1, normalised peak current, maximum response not certain, read-out: EC50 (estimate))	Sustained component of current as % of peak current ([2]; 10 μM, hPIEZO1 cells, mean ± SD)	EC50 ([2]; hPIEZO1, normalised peak current, maximum response not certain, read-out: EC50 (estimate))
O=C(O)c1ccccc1-c1nnc(SCc2c(Cl)cccc2Cl)s1 [KC157]	mostly fails to evoke responses	largely ineffective	mostly fails to evoke responses	largely ineffective	–	–	–	–	–	–	–	–
O=C([O-])c1ccc(-c2nnc(SCc3c(Cl)cccc3Cl)s2)cc1.[K+] [KC289]	–	–	–	–	99.35%	better solubility than Yoda1	better solubility than Yoda1	–	–	–	–	–
O=C(O)c1ccc(-c2nnc(SCc3c(Cl)cccc3Cl)s2)cc1 [KC159]	greatly amplifies the currents	more cells to respond compared with Yoda1	greatly amplifies the currents	more cells to respond compared with Yoda1	–	better solubility than Yoda1	better solubility than Yoda1	0.006	26 ± 8%	~1540 nM	−4 ± 2%	~1670 nM
